Where two headings read alike, the source gives them in different places.
Legend:
[1] = biological target: T1, h-5-HT6 receptor (Homo sapiens, UniProt P50406); assay: Human 5-HT6 receptor radioligand binding assay (HEK293 membranes, [3H]-LSD)
T1 construct: expressed in transfected cells; host or cells: HEK293 cells (membranes)
Description: (v) Human 5-HT6 Receptor Radioligand Binding Assay
Preparation of Membranes by Ultrasonic Treatment and Differential Centrifugation
Cells from stable clonal cell lines expressing the corresponding receptor (5-HT6) were washed with PBS (without Ca^++, Mg^++) and harvested in PBS with 0.02% EDTA. The cells were collected by centrifugation at 500 g for 10 minutes at 4° C., washed with PBS and centrifuged (500 g, 10 minutes at 4° C.). The pellets were stored at −80° C. until use. For membrane preparation, the thawed cell pellet was resuspended in ice-cold sucrose buffer (0.25 M sucrose, 10 mM HEPES (pH 7.4), 1 mM phenylmethylsulfonyl fluoride (PMSF) in DMSO, 5 μg/ml Pepstatin-A, 3 mM EDTA, 0.025% Bacitracin) and homogenized with a Branson Sonifier W-250 (Settings: Timer 4; Output Control 3; Duty Cycle constant; 2 to 3 cycles). Cell disruption was checked with the aid of a microscope. Remaining unbroken cells were pelleted at 1,000 g for 10 minutes at 4° C. The sucrose buffer supernatant was then centrifuged at 60,000 g for 1 hour at 4° C. (Beckman Ultracentrifuge XL 80). The pellet was resuspended in 30 mL of ice-cold Tris buffer (20 mM TRIS (pH 7.4), 5 μg/mL Pepstatin A, 0.1 mM PMSF, 3 mM EDTA) by pipetting through a 10 mL serological pipette and centrifuged for 1 hour at 4° C. at 60,000 g. A final resuspension was performed in a small volume of ice-cold Tris buffer (see above) by pressing through a serological pipette followed by ultrasonic treatment with a Branson Sonifier W-250 (Settings: Timer 1; Output Control 3; Duty Cycle constant; 1 cycle). Protein concentration was determined (BCA-Kit; Pierce) and aliquots stored at −80° C. or in liquid nitrogen for long-term storage.
Receptor Binding Experiments
All receptor binding experiments were carried out in the corresponding assay buffer in a total volume of 200 μL in the presence of various concentrations of test compound (10^−5 M to 10^−9 M, tenfold serial dilution, duplicate determinations). The assays were terminated by filtration on polyethylenimine (PEI 0.1% or 0.3%) presoaked Packard Unifilter Plates (GF/C or GF/B) with a Tomtec MachIII U 96 well-plate harvester. After the plates had been dried for 2 hours at 55° C. in a drying chamber scintillation cocktail (BetaPlate Scint; PerkinElmer) was added. Radioactivity was measured in a Microbeta Trilux two hours after the addition of the scintillation mixture.
5-HT6 Receptor Binding Assay
HEK293 cells stably expressing the h-5-HT6 receptor (NCBI Reference Sequence XM 001435) were cultured in RPMI1640 medium supplemented with 25 mM HEPES, 10% fetal calf serum and 1-2 mM glutamine. The membrane preparation was performed as described above. […] On the day of the assay, the membranes were thawed, diluted in assay buffer (50 mM Tris-HCl, 5 mM CaCl2, 0.1% ascorbic acid, 10 μM pargyline, pH 7.4) to a concentration of 8 μg protein/assay and homogenized by gentle vortexing. […] Non-specific binding was defined with 1 μM methiothepin. The binding reaction was carried out for 3.5 hours at room temperature. During the incubation, the plates were shaken on a plate shaker at 100 rpm and terminated by filtration on Packard Unifilter GF/C (0.1% PEI) plates, followed by 2 wash cycles with ice-cold 50 mM Tris-HCl, 5 mM CaCl2.
Data derived from liquid scintillation counting were analyzed by iterative non-linear regression analysis with the use of the Statistical Analysis System (SAS): a program similar to “LIGAND” as described by Munson and Rodbard (Anal. Biochem. 1980, 107, 220-239). Fitting was performed according to formulae described by Feldman (Anal. Biochem. 1972, 48, 317-338). IC50 and Ki values were expressed as geometrical mean.

[2] = biological target: T2, 5HT2C receptors (Homo sapiens, UniProt P28335); assay: Human 5-HT2C functional assay in 1321N1 cells (intracellular calcium, FLIPR); format: cell-based; design: expressed in transfected cells; host or cells: 1321N1 cells; details: 5-HT2c agonist activity, maximum calcium response
T2 sequence (P28335 33-458): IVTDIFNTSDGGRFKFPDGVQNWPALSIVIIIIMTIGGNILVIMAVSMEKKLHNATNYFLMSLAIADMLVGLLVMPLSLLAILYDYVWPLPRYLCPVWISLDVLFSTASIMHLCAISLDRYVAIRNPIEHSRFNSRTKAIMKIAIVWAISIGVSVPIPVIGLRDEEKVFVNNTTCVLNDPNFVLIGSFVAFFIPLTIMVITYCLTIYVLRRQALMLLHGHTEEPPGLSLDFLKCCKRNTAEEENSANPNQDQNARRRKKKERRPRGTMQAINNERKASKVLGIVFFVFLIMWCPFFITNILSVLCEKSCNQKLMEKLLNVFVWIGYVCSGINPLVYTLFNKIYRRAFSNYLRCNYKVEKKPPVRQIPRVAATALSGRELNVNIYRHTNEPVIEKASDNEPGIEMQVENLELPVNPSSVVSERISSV
Summary of the method: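 Intracellular calcium (Fluo-4, FLIPR peak response) was measured in stably transfected human 5-HT2C 1321N1 cells after overnight serum-free culture. Compounds were applied at final 10^−10 to 10^−5 M either alone or together with 10^−9 M serotonin. Half-maximal effect concentration was derived by four-parameter logistic fitting.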

[3] = biological target: T3, human serotonin 5-HT2c receptor (Homo sapiens, UniProt P28335); assay: Human 5-HT2C receptor radioligand binding assay (agonist site, [125I]DOI); details: 5-HT2c agonist site; transfected CHO cell membranes; 0.2 nM [125I](±)DOI
T3 construct: expressed in transfected cells; host or cells: CHO cells (membrane homogenates)
T3 sequence (P28335 33-458): T2 sequence (P28335 33-458)
Description: (i) Human 5-HT2C Receptor Radioligand Binding Assay
Affinity of compounds for the agonist site of the […], receptor in transfected CHO cells was determined in a radioligand binding assay essentially as described by Bryant, H. U., et al., Life Sciences (1996) 59(15), 1259-1268.

[4] = biological target: T4, 5HT2B receptors (Homo sapiens, UniProt P41595); assay: Human 5-HT2B functional high throughput screening assay in CHO-K1 cells (calcium flux); format: cell-based
T4 construct: expressed in transfected cells; host or cells: CHO-K1 cells
Summary of the method: (§1)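 Agonism was measured as FLIPR fluorescence increase (480/530 nm, 25° C) with Ca4 dye and 2.5 mM probenecid, in serum-starved CHO-K1 lines overexpressing human 5-HT2C or 5-HT2B. Six-point 1:10 dilutions from 10 μM (0.2% DMSO final) were fitted by 4-parameter logistics. Responses were normalised to serotonin to give EC50 and % Emax.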

[5] = biological target: T2, 5HT2C receptors; assay: Human 5-HT2C functional high throughput screening assay in CHO-K1 cells (calcium flux); format: cell-based; design: expressed in transfected cells; host or cells: CHO-K1 cells
Summary of the method: as §1

[6] = HEK293 membranes expressing h-5-HT6 receptor, 1 nM [3H]-LSD, geometrical mean, read-out: Ki (5-HT6 Agonist Site Radioligand Binding)

T1 sequence (P50406 whole entry): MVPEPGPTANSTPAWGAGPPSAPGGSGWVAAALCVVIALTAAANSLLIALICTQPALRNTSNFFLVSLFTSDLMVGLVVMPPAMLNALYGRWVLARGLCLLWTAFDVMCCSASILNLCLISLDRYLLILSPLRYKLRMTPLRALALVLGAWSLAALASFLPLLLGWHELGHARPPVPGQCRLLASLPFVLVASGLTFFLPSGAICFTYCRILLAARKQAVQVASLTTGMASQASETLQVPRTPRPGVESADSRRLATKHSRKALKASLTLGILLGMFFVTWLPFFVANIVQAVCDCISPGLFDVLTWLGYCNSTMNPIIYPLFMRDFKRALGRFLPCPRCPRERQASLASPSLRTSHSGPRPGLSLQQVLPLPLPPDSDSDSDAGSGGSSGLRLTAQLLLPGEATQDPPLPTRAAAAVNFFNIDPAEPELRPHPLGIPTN
T4 sequence (P41595 whole entry): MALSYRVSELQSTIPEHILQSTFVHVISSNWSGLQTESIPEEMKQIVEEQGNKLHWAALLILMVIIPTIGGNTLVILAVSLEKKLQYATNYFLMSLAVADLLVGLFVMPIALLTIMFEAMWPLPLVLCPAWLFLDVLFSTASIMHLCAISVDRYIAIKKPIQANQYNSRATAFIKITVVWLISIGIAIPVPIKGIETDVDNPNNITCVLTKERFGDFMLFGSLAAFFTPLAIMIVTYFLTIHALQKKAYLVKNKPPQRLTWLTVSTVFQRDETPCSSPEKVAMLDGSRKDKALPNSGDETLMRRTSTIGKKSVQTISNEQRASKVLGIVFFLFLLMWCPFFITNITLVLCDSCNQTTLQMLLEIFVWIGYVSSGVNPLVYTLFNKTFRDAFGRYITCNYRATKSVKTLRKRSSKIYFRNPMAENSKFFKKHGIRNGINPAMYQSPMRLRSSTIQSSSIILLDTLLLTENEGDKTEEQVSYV

Molecule	Ki [1, 6] [µM]	EC50 [2] [µM]	further results
O=S(=O)(c1cccc2ccccc12)N1Cc2ccccc2[C@@H]2CN(Cc3ccccc3)C[C@H]2C1 (relative stereo) [Example 13, Trans-2-benzyl-5-(naphthalen-1-ylsulfonyl)-1,2,3,3a,4,5,6,10b-octahydrobenzo[c]pyrrolo[3,4-e]azepine]	0.0375		
N#Cc1ccccc1S(=O)(=O)N1Cc2ccccc2[C@@H]2CN(Cc3ccccc3)C[C@H]2C1 (relative stereo) [Example 21, Trans-2-benzyl-5-(2-cyanophenylsulfonyl)-1,2,3,3a,4,5,6,10b-octahydrobenzo[c]pyrrolo[3,4-e]azepine]	0.0361		
O=S(=O)(c1cccc(F)c1)N1Cc2ccccc2[C@@H]2CNC[C@H]2C1 (relative stereo) [Example 54, Trans-5-(3-fluorophenylsulfonyl)-1,2,3,3a,4,5,6,10b-octahyrobenzo[c]pyrrolo[3,4-e]azepine]		0.0132	Ki [3]: 0.0091 µM; Ki [1]: 0.121 µM
CN1C[C@H]2CN(S(=O)(=O)c3ccccc3)Cc3ccccc3[C@@H]2C1 (relative stereo) [Example 71, Trans-2-methyl-5-(phenylsulfonyl)-1,2,3,3a,4,5,6,10b-octahydrobenzo[e]pyrrolo[3,4-e]azepine]		0.0142	Ki [3]: 0.015 µM; Ki [1]: 0.00442 µM
CN1C[C@H]2CN(S(=O)(=O)c3ccccc3)Cc3ccccc3[C@H]2C1 (relative stereo) [Example 72, Cis-2-methyl-5-(phenylsulfonyl)-1,2,3,3a,4,5,6,10b-octahydrobenzo[c]pyrrolo[3,4-e]azepine]		0.0519	Ki [3]: 0.065 µM; Ki [1]: 0.0717 µM
CN1C[C@H]2CNC(=O)c3cc(OCc4cccc(F)c4)ccc3[C@@H]2C1 (relative stereo) [Example 217, Trans-8-(3-fluorobenzyloxy)-2-methyl-1,2,3,3a,4,5-hexahydrobenzo[c]pyrrolo[3,4-e]azepin-6(10bH)-one]	3.18		EC50 ([4]; 5-HT2B agonist activity, CHO-K1 cells, calcium flux, read-out: EC50): > 10 µM; Emax ([4]; 5-HT2B, maximum functional response as percentage relative to the effect of serotonin): inactive; EC50 ([5]; 5-HT2C agonist activity, CHO-K1 cells, calcium flux, read-out: EC50): 0.002 µM; Emax ([5]; CHO-K1, 5-HT2C, maximum functional response as percentage relative to the effect of serotonin, read-out: Emax): 120%
Trans-2-benzyl-5-(2-dichlorophenylsulfonyl)-1,2,3,3a,4,5,6,10b-octahydrobenzo[c]pyrrolo[3,4-e]azepine [Example 19]	0.0141		

More lines, main results first:

Ki [1, 6] [µM]	Molecule	EC50 [2] [µM]	further results
0.0171	O=S(=O)(c1cccc(Cl)c1Cl)N1Cc2ccccc2[C@@H]2CN(Cc3ccccc3)C[C@H]2C1 (relative stereo) [Example 9, Trans-2-benzyl-5-(2,3-dichlorophenylsulfonyl)-1,2,3,3a,4,5,6,10b-octahydrobenzo[c]pyrrolo[3,4-e]azepine]	> 10	
0.174	O=S(=O)(c1cc(Cl)ccc1Cl)N1Cc2ccccc2[C@@H]2CN(Cc3ccccc3)C[C@H]2C1 (relative stereo) [Example 10, Trans-2-benzyl-5-(2,5-dichlorophenylsulfonyl)-1,2,3,3a,4,5,6,10b-octahydrobenzo[c]pyrrolo[3,4-e]azepine]		
0.0403	O=S(=O)(c1ccccc1Br)N1Cc2ccccc2[C@@H]2CN(Cc3ccccc3)C[C@H]2C1 (relative stereo) [Example 11, Trans-2-benzyl-5-(2-bromophenylsulfonyl)-1,2,3,3a,4,5,6,10b-octahydrobenzo[c]pyrrolo[3,4-e]azepine]		
0.49	COc1ccc(OC)c(S(=O)(=O)N2Cc3ccccc3[C@@H]3CN(Cc4ccccc4)C[C@H]3C2)c1 (relative stereo) [Example 15, Trans-2-benzyl-5-(2,5-dimethoxyphenylsulfonyl)-1,2,3,3a,4,5,6,10b-octahydrobenzo[c]pyrrolo[3,4-e]azepine]		
0.0551	Cc1ccc(C)c(S(=O)(=O)N2Cc3ccccc3[C@@H]3CN(Cc4ccccc4)C[C@H]3C2)c1 (relative stereo) [Example 17, Trans-2-benzyl-5-(2,5-dimethylphenylsulfonyl)-1,2,3,3a,4,5,6,10b-octahydrobenzo[c]pyrrolo[3,4-e]azepine]		
0.0231	COc1cccc(S(=O)(=O)N2Cc3ccccc3[C@@H]3CN(Cc4ccccc4)C[C@H]3C2)c1 (relative stereo) [Example 18, Trans-2-benzyl-5-(3-methoxyphenylsulfonyl)-1,2,3,3a,4,5,6,10b-octahydrobenzo[c]pyrrolo[3,4-e]azepine]		

Source: patent publication US8846951B2 (AbbVie Inc., priority 2009, dated 2014)
